According to patent US7902249B2, “Indole derivatives substituted with long-chain alcohols and medicaments containing them” (Meiji Dairies Corporation, priority 2002, dated 2011):
Entries after “also recorded” stand apart in the source; their conditions may differ.

Tests used:
[1] = test system: Fetal rat neurons in primary cultures; test: Effect on neurite outgrowth and neuron survival; type: cell-based; details: 10^−6 and 10^−7 M, incubation for 3 days, versus control group (FIG. 1)
Method: This experiment was conducted in accordance with the method of Luu, et al. (C. Girlanda-Junges, F. Keyling-Bilger, G. Schemitt & B. Luu, “Effect of Cyclohexenonic Long Chain Fatty Alcohols on Neurite Outgrowth. Study on Structure-Activity Relationship”, Tetrahedron, 54, 7735-77481998)). Fetal rat neurons in primary cultures were treated with Compound 1 at the concentrations of 10^−6 and 10^−7 M, followed by incubation for 3 days.

human blood cells = test: Preventive effect on hemolysis in human blood cells induced by free radicals; type: cell-based; details: compared with control group (FIG. 2)
Method: An experiment was conducted in accordance with the method of D. Blache. FASEB J. et al. (E. Bourdon, N. Loreau & D. Blache. FABES J. “Glucose and free radicals impair the antioxidant properties of serum albumin”, 13, 233-244(1999)). The time required for 50% hemolysis (HT50) was measured and the extension of the time required for HT50 compared with that of a control group was plotted on a graph. In this experiment, Vitamin E was employed as a positive control.

[2] = test system: Human neuroblastoma cells, Lan-1; test: Induction of proliferation, differentiation and apoptosis of neuroblastoma cells; type: cell-based; design: key to Apoptosis / Proliferation / Differentiation: ++++: Extremely strongly stimulated (reinforced).; +++: Very strongly stimulated (reinforced).; ++: Strongly stimulated (reinforced).; +: Stimulated (reinforced).; +/−: No change.; −: Decreased (weakened); details: for effects on induction of differentiation or apoptosis versus proliferation: Lan-1 cells, summary of Table 1
Text: Human neuroblastoma cells, Lan-1 (Lan-1: a human neuroblastoma cell line with M1 and M2 muscarinic receptors conjugated with intracellular Ca^2+) were used to investigate the effects of the present compounds on the induction of proliferation, differentiation and apoptosis.

Row | SMILES | extension of the time required for 50% hemolysis (HT50) (human blood cells) | Apoptosis ([2]; Day 1, 0.1 μM) | Differentiation ([2]; Day 1, 0.1 μM) | Proliferation ([2]; Day 1, 0.1 μM) | Apoptosis ([2]; Day 1, 10 μM) | Differentiation ([2]; Day 1, 10 μM) | Proliferation ([2]; Day 1, 10 μM) | Apoptosis ([2]; Day 1, 100 μM) | Differentiation ([2]; Day 1, 100 μM) | Proliferation ([2]; Day 1, 100 μM) | Apoptosis ([2]; Day 2, 0.1 μM) | Differentiation ([2]; Day 2, 0.1 μM) | Proliferation ([2]; Day 2, 0.1 μM) | Apoptosis ([2]; Day 2, 10 μM) | Differentiation ([2]; Day 2, 10 μM) | Proliferation ([2]; Day 2, 10 μM) | Apoptosis ([2]; Day 2, 100 μM) | Differentiation ([2]; Day 2, 100 μM) | Proliferation ([2]; Day 2, 100 μM) | Apoptosis ([2]; Day 5, 0.1 μM) | also measured
1 | OCCCCCCCCCCCCCCCCc1c[nH]c2ccccc12 [Compound 1, 3-(16-hydroxyhexadecyl)indole] | extended HT50 | − | +/− | + | +/− | ++ | + | + | +++ | +/− | − | +/− | ++ | +/− | +++ | + | + | ++++ | − | − | proportion of the neurons with neurites of 50 μm or longer [1]: higher in the treated group than in the control group; Differentiation ([2]; Day 5, 0.1 μM): +/−; Proliferation ([2]; Day 5, 0.1 μM): +/−; Apoptosis ([2]; Day 5, 10 μM): ++; Differentiation ([2]; Day 5, 10 μM): +++; Proliferation ([2]; Day 5, 10 μM): +/−; Apoptosis ([2]; Day 5, 100 μM): +++; Differentiation ([2]; Day 5, 100 μM): +; Proliferation ([2]; Day 5, 100 μM): −; Apoptosis ([2]; Day 7, 0.1 μM): +/−; Differentiation ([2]; Day 7, 0.1 μM): +; Proliferation ([2]; Day 7, 0.1 μM): +/−; Apoptosis ([2]; Day 7, 10 μM): ++; Differentiation ([2]; Day 7, 10 μM): ++++; Proliferation ([2]; Day 7, 10 μM): +/−; Apoptosis ([2]; Day 7, 100 μM): +++; Differentiation ([2]; Day 7, 100 μM): ++; Proliferation ([2]; Day 7, 100 μM): −; effects on induction of differentiation or apoptosis versus proliferation [2]: stronger effects on induction of differentiation or apoptosis of neuroblastoma cells rather than on proliferation; melting point: 79 to 80 °C
2 | OCCc1c[nH]c2ccccc12 [Compound 2, 3-(2-hydroxyethyl)indole] | extended HT50 |  |  |  |  |  |  |  |  |  |  |  |  |  |  |  |  |  |  |  | 
3 | OCCCCCCCCCCc1c[nH]c2ccccc12 [Compound 3, 3-(10-hydroxydecyl)indole] |  | − | + | + | − | +++ | +/− | ++ | + | − | − | + | + | + | ++ | +/− | ++ | + | +/− | +/− | Differentiation ([2]; Day 5, 0.1 μM): −; Proliferation ([2]; Day 5, 0.1 μM): +; Apoptosis ([2]; Day 5, 10 μM): +; Differentiation ([2]; Day 5, 10 μM): ++; Proliferation ([2]; Day 5, 10 μM): +/−; Apoptosis ([2]; Day 5, 100 μM): ++; Differentiation ([2]; Day 5, 100 μM): +++; Proliferation ([2]; Day 5, 100 μM): +/−; Apoptosis ([2]; Day 7, 0.1 μM): +/−; Differentiation ([2]; Day 7, 0.1 μM): +/−; Proliferation ([2]; Day 7, 0.1 μM): ++; Apoptosis ([2]; Day 7, 10 μM): +; Differentiation ([2]; Day 7, 10 μM): +++; Proliferation ([2]; Day 7, 10 μM): +/−; Apoptosis ([2]; Day 7, 100 μM): ++++; effects on induction of differentiation or apoptosis versus proliferation [2]: stronger effects on induction of differentiation or apoptosis of neuroblastoma cells rather than on proliferation
4 | OCCCCCCCCCCCc1c[nH]c2ccccc12 [Compound 4, 3-(11-hydroxyundecyl)indole] | extended HT50; also recorded: strong effect | − | − | ++ | − | ++ | + | +++ | + | +/− | − | + | + | + | ++ | +/− | +++ | − | − | − | Differentiation ([2]; Day 5, 0.1 μM): +/−; Proliferation ([2]; Day 5, 0.1 μM): +/−; Apoptosis ([2]; Day 5, 10 μM): −; Differentiation ([2]; Day 5, 10 μM): ++; Proliferation ([2]; Day 5, 10 μM): +/−; Apoptosis ([2]; Day 5, 100 μM): +; Differentiation ([2]; Day 5, 100 μM): ++++; Proliferation ([2]; Day 5, 100 μM): +; Apoptosis ([2]; Day 7, 0.1 μM): −; Differentiation ([2]; Day 7, 0.1 μM): +/−; Proliferation ([2]; Day 7, 0.1 μM): ++; Apoptosis ([2]; Day 7, 10 μM): +/−; Differentiation ([2]; Day 7, 10 μM): ++; Proliferation ([2]; Day 7, 10 μM): +/−; Apoptosis ([2]; Day 7, 100 μM): ++++; effects on induction of differentiation or apoptosis versus proliferation [2]: stronger effects on induction of differentiation or apoptosis of neuroblastoma cells rather than on proliferation
